Experimental data from US11680050B2, “Crystalline forms of ozanimod and ozanimod hydrochloride, and processes for preparation thereof” (RECEPTOS LLC, priority 2016, dated 2023).
Values after ≈ are worked out from the molar mass of the structure shown.

Key:
Type in all cases: physicochemical
[1] = Hygroscopicity assessment by dynamic vapor sorption (DVS); conditions: for Weight gain under 80% RH: DVS, 25° C.
Experimental: Dynamic Vapor Sorption (DVS) is measured via an SMS (Surface Measurement Systems Ltd.) intrinsic DVS. Typical Parameters for DVS test are as follows:
Gas and flow rate: N2, 200 mL/min
RH range: 0% RH to 95% RH […]
Dynamic vapor sorption (DVS) was applied to test hygroscopicity of Form CS1 of ozanimod hydrochloride with about 10 mg of samples.
Description and definition of hygroscopicity (Chinese Pharmacopoeia 2015 edition appendix Drug hygroscopic test guidelines, test at 25° C.+/−1° C., 80% RH). • deliquescent: Sufficient water is absorbed to form a liquid; • very hygroscopic: Increase in mass is equal to or greater than 15 percent; • hygroscopic: Increase in mass is less than 15 percent and equal to or greater than 2 percent; • slightly hygroscopic: Increase in mass is less than 2 percent and equal to or greater than 0.2 percent. • non hygroscopic or almost non hygroscopic: Increase in mass is less than 0.2 percent.

[2] = Stability assessment in constant temperature and humidity chambers (HPLC purity, XRPD crystalline form); conditions: for 1 week purity % / 2 week purity % / 4 week purity %: HPLC; for Change of the crystalline form: XRPD; for Stability, overall conclusion of the storage test: after storage under all conditions tested for the form
Experimental: (§1) Three solid samples of Form CS1 were placed in constant temperature and humidity chambers at 25° C./60% RH, 40° C./75% RH and 60° C./75% RH for 4 weeks. XRPD was used to test the crystalline form at the end of week 4. HPLC was used to measure the chemical purity at the end of week 1, 2, and 4. The XRPD comparison result is shown in FIG. 31 (from top to bottom: XRPD pattern of Form CS1 before and after being stored under 25° C./60% RH, 40° C./75% RH and 60° C./75% RH for 4 weeks), and the results are shown in Table 20.
as §1, with “Four” for “Three”, “CS2” for “CS1”, “weeks and 80° C. for 1 week.” for “weeks.”, “32” for “31”, “weeks and 80° C. for 1 week),” for “weeks),”, “21.” for “20.”
as §1, with “Form CS3” for “Form CS1”, “comparison pattern” for “comparison result”, “FIG. 33” for “FIG. 31”, “Table 22.” for “Table 20.”
as §1, with “Form CS5” for “Form CS1”, “for 2” for “for 4”, “[…].” for “4. HPLC was used to measure the chemical purity at the end of week 1, 2, and 4.”, “comparison pattern” for “comparison result”, “FIG. 34” for “FIG. 31”, “Table 23.” for “Table 20.”
Two samples of Form CS6 were placed in constant temperature and humidity chambers at 25° C./60% RH and 40° C./75% RH for 4 weeks. XRPD was used to test the crystalline form at the end of week 4. HPLC was used to measure the chemical purity at the end of week 1, 2, and 4.The XRPD comparison result is shown in FIG. 35 (from top to bottom: XRPD pattern of Form CS6 before and after being stored under 25° C./60% RH and 40° C./75% RH for 4 weeks), and the results are shown in Table 24.
Four samples of Form CS1 of ozanimod hydrochloride were placed in constant temperature and humidity chambers at 25° C./60% RH, 40° C./75% RH and 60° C./75% RH for 4 weeks and 80° C. for 1 week. XRPD was used to test the crystalline form at the end of week 4. HPLC was used to measure the chemical purity at the end of week 1, 2, and 4. The XRPD comparison pattern is shown in FIG. 36 (from top to bottom: XRPD pattern of ozanimod hydrochloride Form CS1 before and after being stored under 25° C./60% RH, 40° C./75% RH and 60° C./75% RH for 4 weeks and 80° C. for 1 week), and the results are shown in Table 25.

[3] = Particle size distribution test (laser particle size analyzer, wet process); conditions: for MV, average particle size calculated by volume: dispersion medium Isopar G; for D10 / D50 (median diameter) / D90: volume distribution, Isopar G
Experimental: The particle size distribution test in the present disclosure is acquired by the S3500 laser particle size analyzer of Microtrac. Microtrac S3500 is equipped with the SDC (Sample Delivery Controller). The test is carried out by wet process, and the dispersion medium is Isopar G The parameters are as follow:
Certain amount of samples of Form CS1, Form CS2, Form CS3, Form CS5, Form CS6 of ozanimod and Form CS1 of ozanimod hydrochloride were taken for particle size distribution test.

[4] = Solubility assessment of saturated solutions in SGF, FeSSIF and water, measured by HPLC
Experimental: Form CS1 and Form CS1 of ozanimod hydrochloride were suspended into SGF (Simulated gastric fluids) and FeSSIF (Fed state simulated intestinal fluids, pH=5.0) to obtain saturated solutions. After being equilibrated for 1 h, 4 h and 24 h, concentrations of the saturated solutions were measured by HPLC.
Form CS3 and Form CS5 were suspended into SGF (Simulated gastric fluids) and water, and Form CS2 was suspended into FeSSIF (Fed state simulated intestinal fluids) to obtain saturated solutions. After being equilibrated for 1 h, 4 h and 24 h, concentrations of the saturated solutions were measured by HPLC.

[5] = Mechanical stability, manual grinding for 5 minutes in mortar, XRPD; conditions: ground manually for 5 minutes, XRPD before and after
Experimental: Solid samples of Form CS3, Form CS5, Form CS6 of ozanimod and Form CS1 of ozanimod hydrochloride were ground manually for 5 minutes in mortar.

## CC(C)Oc1ccc(-c2nc(-c3cccc4c3CC[C@@H]4NCCO)no2)cc1C#N [Form CS3, ozanimod]
[1]
  Weight gain under 80% RH: 2.25%
[2]; 25° C./60% RH
  1 week purity %: 99.53%
[2]; 25° C./60% RH, 2 weeks
  2 week purity %: 99.30%
[2]; 25° C./60% RH, 4 weeks
  4 week purity %: 99.31%
  Change of the crystalline form: No change
[2]; 40° C./75% RH
  1 week purity %: 99.52%
[2]; 40° C./75% RH, 2 weeks
  2 week purity %: 99.28%
[2]; 40° C./75% RH, 4 weeks
  4 week purity %: 99.17%
  Change of the crystalline form: No change
[2]; 60° C./75% RH
  1 week purity %: 99.36%
[2]; 60° C./75% RH, 2 weeks
  2 week purity %: 98.84%
[2]; 60° C./75% RH, 4 weeks
  4 week purity %: 98.54%
  Change of the crystalline form: No change
[2]
  Stability, overall conclusion of the storage test: good stability
[3]
  MV, average particle size calculated by volume: 66.62 μm
  D10: 20.36 μm
  D50 (median diameter): 51.80 μm
  D90: 130.8 μm
[4]; SGF, 1 h
  Solubility: 540 µg/mL (≈ 1340 µM)
[4]; SGF, 4 h
  Solubility: 520 µg/mL (≈ 1290 µM)
[4]; SGF, 24 h
  Solubility: 540 µg/mL (≈ 1340 µM)
[4]; water, thermodynamic from solid, H2O, 1 h
  solubility at 1 h: 170 µg/mL (≈ 420 µM)
[4]; water, thermodynamic from solid, H2O, 24 h
  solubility at 24 h: 350 µg/mL (≈ 865 µM)
[5]
  Form change under mechanical stress: No form change

## CC(C)Oc1ccc(-c2nc(-c3cccc4c3CC[C@@H]4NCCO)no2)cc1C#N [Form CS5, ozanimod]
[1]; Chinese Pharmacopoeia 2015, 25° C., 80% RH
  Hygroscopicity class according to the definition of hygroscopicity: slightly hygroscopic (Increase in mass is less than 2 percent and equal to or greater than 0.2 percent)
[1]
  Weight gain under 80% RH: 0.23%
[2]; 25° C./60% RH, 2 weeks
  Change of the crystalline form: No change
[2]; 40° C./75% RH, 2 weeks
  Change of the crystalline form: No change
[2]; 60° C./75% RH, 2 weeks
  Change of the crystalline form: No change
[2]
  Stability, overall conclusion of the storage test: good stability
[3]
  MV, average particle size calculated by volume: 68.84 μm
  D10: 6.55 μm
  D50 (median diameter): 41.10 μm
  D90: 173.3 μm
[4]; H2O, 24 h
  Solubility: 270 µg/mL (≈ 668 µM)
[4]; SGF, 4 h
  Solubility: 1000 µg/mL (≈ 2470 µM)
[4]; SGF, 24 h
  Solubility: 770 µg/mL (≈ 1900 µM)
[4]; water, thermodynamic from solid, H2O, 4 h
  solubility at 4 h: 260 µg/mL (≈ 643 µM)
[5]
  Form change under mechanical stress: No form change
